Results: patent US20080274892A1, “Novel Haloalkylsulfonanilide Derivative, Herbicide, and Method of Use Thereof” (priority 2005, published 2008)

Assays:
bulrush [1] = assay: Test Example 1: herbicidal efficacy on rice paddy weeds pre-emergence; format: in vivo, Scirpus juncoides; details: 21 days
false pimpernel [2] = assay: as above; format: in vivo, Lindernia pyxidaria; details: 21 days
barnyard glass = assay: Test Example 2: herbicidal efficacy on rice paddy weeds post-emergence; format: in vivo, Echinochloa crus-galli; details: post-emergence, one leaf stage, 21 days after treatment
Outline: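 Plastic pots of 75 cm^2 were filled with clay loam soil and sown with barnyard glass and bulrush seeds, then topped with 75 cm^3 soil containing false pimpernel seeds. The pots were flooded to 5 cm water depth and held in a hot house. Twenty-one days after treatment, herbicidal efficacy was graded against an untreated control.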

bulrush [3] = assay: as above; format: in vivo, Scirpus juncoides; details: post-emergence, one leaf stage, 21 days after treatment
false pimpernel [4] = assay: as above; format: in vivo, Lindernia pyxidaria; details: post-emergence, one leaf stage, 21 days after treatment
[5] = test system: paddy rice plant (cultivar: Nihonbare); assay: Test Example 3: phytotoxicity test for transplanted paddy rice plant; format: in vivo; details: transplanted rice, 21 days after treatment
Outline: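 Clay loam soil was placed in a 75 cm^2 plastic pot and flooded to a water depth of 5 cm. Two Nihonbare paddy rice plants at the two-leaf stage were transplanted 1 cm deep and grown in a hot house. After treatment, pots stayed in the hot house for 21 days, and phytotoxicity was then graded against an untreated control.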

bulrush [6] = assay: Test Example 4: low dosage test for rice paddy weeds; format: in vivo, Scirpus juncoides; details: 300 g/ha as an active ingredient; plants treated at the one leaf stage; 21 days after treatment; vs untreated control
Outline: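 Bulrush sown in clay loam pots, flooded to 5 cm water in a hot house, treated at the one-leaf stage with formulated compound at 300 g/ha. Efficacy scored 0–4 against untreated control 21 days after treatment (4 = 90–100%, 0 = 0% inhibition).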

[7] = test system: transplanted paddy rice plant and Bulrush; assay: Test Example 5: selectivity between transplanted paddy rice plant and weeds; format: in vivo; details: (highest dosage with no phytotoxicity to paddy rice)/(lowest dosage with effective level 4 on Bulrush); rice 3000-100 g/ha, Bulrush 300-10 g/ha; 21 days
Outline: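 Transplanted paddy rice was treated at 3000, 1000, 300 and 100 g/ha active ingredient for phytotoxicity, and post-emergence bulrush at 300, 100, 30 and 10 g/ha. Plants were kept in a hothouse for 21 days. Growth inhibition versus untreated control was scored 0–4 (0%, 1–39%, 40–69%, 70–89%, 90–100%).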

[8] = dosage 1000 g/ha, treated 5 days after transplantation

| Compound | Bulrush pre (herbicidal efficacy grade) (bulrush [1]; dosage 1000 g/ha) | False pimpernel pre (herbicidal efficacy grade) (false pimpernel [2]; dosage 1000 g/ha) | Burnyard grass post (herbicidal efficacy grade) (barnyard glass; dosage 1000 g/ha) | Bulrush post (herbicidal efficacy grade) (bulrush [3]; dosage 1000 g/ha) | False pimpernel post (herbicidal efficacy grade) (false pimpernel [4]; dosage 1000 g/ha) | Phytotoxicity to paddy rice [5, 8] | Herbicide effect to Bulrush (bulrush [6]) | Selective Index [7] | melting point | Bulrush pre (herbicidal efficacy grade) (bulrush [1]; dosage 300 g/ha) | False pimpernel pre (herbicidal efficacy grade) (false pimpernel [2]; dosage 300 g/ha) | Burnyard grass post (herbicidal efficacy grade) (barnyard glass; dosage 300 g/ha) | Bulrush post (herbicidal efficacy grade) (bulrush [3]; dosage 300 g/ha) | False pimpernel post (herbicidal efficacy grade) (false pimpernel [4]; dosage 300 g/ha) | Phytotoxicity to paddy rice ([5]; dosage 300 g/ha) |
| --- | --- | --- | --- | --- | --- | --- | --- | --- | --- | --- | --- | --- | --- | --- | --- |
| CC1(C)CN(Cc2ccccc2NS(=O)(=O)C(F)(F)F)C(=O)S1 [Compound No. 1-184, 5,5-dimethyl-3-[2-(trifluoromethanesulfonylamino)benzyl]thiazolidin-2-one] | 4 (90%-100% of herbicidal efficacy or phytotoxicity) | 4 (90%-100% of herbicidal efficacy or phytotoxicity) | 4 (90%-100% of herbicidal efficacy or phytotoxicity) | 4 (90%-100% of herbicidal efficacy or phytotoxicity) | 4 (90%-100% of herbicidal efficacy or phytotoxicity) | 1 (1%-39% of herbicidal efficacy or phytotoxicity) | 4 (90%-100% of herbicidal efficacy or phytotoxicity) | 10 | 115 to 117.5 °C | – | – | – | – | – | – |
| CC1CN(Cc2ccccc2NS(=O)(=O)C(F)(F)F)C(=S)O1 (stereo not shown) [Compound No. 1-21, 5-methyl-3-[2-(trifluoromethanesulfonylamino)benzyl]-2-oxazolidinethione] | 4 (90%-100% of herbicidal efficacy or phytotoxicity) | 4 (90%-100% of herbicidal efficacy or phytotoxicity) | 4 (90%-100% of herbicidal efficacy or phytotoxicity) | 4 (90%-100% of herbicidal efficacy or phytotoxicity) | 3 (70%-89% of herbicidal efficacy or phytotoxicity) | 0 (0% of herbicidal efficacy or phytotoxicity) | 4 (90%-100% of herbicidal efficacy or phytotoxicity) | 33 | 74 to 76 °C | – | – | – | – | – | – |
| CCC1COC(=O)N1Cc1ccccc1N(C(=O)OCC(C)C)S(=O)(=O)C(F)(F)F (stereo not shown) [Compound No. 1-6, 4-ethyl-3-{2-[N-(isobutoxycarbonyl)-N-(trifluoromethanesulfonyl)amino]benzyl}-2-oxazolidinone] | 4 (90%-100% of herbicidal efficacy or phytotoxicity) | 4 (90%-100% of herbicidal efficacy or phytotoxicity) | 4 (90%-100% of herbicidal efficacy or phytotoxicity) | 4 (90%-100% of herbicidal efficacy or phytotoxicity) | 4 (90%-100% of herbicidal efficacy or phytotoxicity) | 1 (1%-39% of herbicidal efficacy or phytotoxicity) | 3 (70%-89% of herbicidal efficacy or phytotoxicity) | 3 | 69.3 to 71.7 °C | – | – | – | – | – | – |
| CCC1COC(=O)N1Cc1ccccc1NS(=O)(=O)C(F)(F)F (stereo not shown) [Compound No. 1-5, 4-ethyl-3-[2-(trifluoromethanesulfonylamino)benzyl]-2-oxazolidinone] | 4 (90%-100% of herbicidal efficacy or phytotoxicity) | 4 (90%-100% of herbicidal efficacy or phytotoxicity) | 4 (90%-100% of herbicidal efficacy or phytotoxicity) | 4 (90%-100% of herbicidal efficacy or phytotoxicity) | 4 (90%-100% of herbicidal efficacy or phytotoxicity) | 2 (40%-69% of herbicidal efficacy or phytotoxicity) | 4 (90%-100% of herbicidal efficacy or phytotoxicity) | ≧10 | 81.4 to 83.6 °C | – | – | – | – | – | – |
| CCC1CN(Cc2ccccc2N(C(=O)OCC(C)C)S(=O)(=O)C(F)(F)F)C(=O)O1 (stereo not shown) [Compound No. 1-24, 5-ethyl-3-{2-[N-(isobutoxycarbonyl)-N-(trifluoromethanesulfonyl)amino]benzyl}-2-oxazolidinone] | 4 (90%-100% of herbicidal efficacy or phytotoxicity) | 4 (90%-100% of herbicidal efficacy or phytotoxicity) | 4 (90%-100% of herbicidal efficacy or phytotoxicity) | 4 (90%-100% of herbicidal efficacy or phytotoxicity) | 4 (90%-100% of herbicidal efficacy or phytotoxicity) | 0 (0% of herbicidal efficacy or phytotoxicity) | 4 (90%-100% of herbicidal efficacy or phytotoxicity) | 33 | 85 to 87 °C | – | – | – | – | – | – |
| CC1(C)COC(=O)N1Cc1ccccc1NS(=O)(=O)C(F)(F)F [Compound No. 1-15, 4,4-dimethyl-3-[2-(trifluoromethanesulfonylamino)benzyl]-2-oxazolidinone] | 4 (90%-100% of herbicidal efficacy or phytotoxicity) | 4 (90%-100% of herbicidal efficacy or phytotoxicity) | 4 (90%-100% of herbicidal efficacy or phytotoxicity) | 4 (90%-100% of herbicidal efficacy or phytotoxicity) | 4 (90%-100% of herbicidal efficacy or phytotoxicity) | 1 (1%-39% of herbicidal efficacy or phytotoxicity) | 4 (90%-100% of herbicidal efficacy or phytotoxicity) | 10 | 134.9 °C | – | – | – | – | – | – |
| Cc1cn(Cc2ccccc2NS(=O)(=O)C(F)(F)F)c(=O)o1 [Compound No. 1-207, 5-methyl-3-[2-(trifluoromethanesulfonylamino)benzyl]-4-oxazolin-2-one] | – | – | – | – | – | – | – | – | 120.2 to 121.2 °C | 4 (90%-100% of herbicidal efficacy or phytotoxicity) | 4 (90%-100% of herbicidal efficacy or phytotoxicity) | 0 (0% of herbicidal efficacy or phytotoxicity) | 4 (90%-100% of herbicidal efficacy or phytotoxicity) | 1 (1%-39% of herbicidal efficacy or phytotoxicity) | 1 (1%-39% of herbicidal efficacy or phytotoxicity) |
| CC(C)COC(=O)N(c1ccccc1CN1C(=O)OCC1(C)C)S(=O)(=O)C(F)(F)F [Compound No. 1-16, 4,4-dimethyl-3-{2-[N-(isobutoxycarbonyl)-N-(trifluoromethanesulfonyl)amino]benzyl}-2-oxazolidinone] | 4 (90%-100% of herbicidal efficacy or phytotoxicity) | 4 (90%-100% of herbicidal efficacy or phytotoxicity) | 4 (90%-100% of herbicidal efficacy or phytotoxicity) | 4 (90%-100% of herbicidal efficacy or phytotoxicity) | 4 (90%-100% of herbicidal efficacy or phytotoxicity) | 0 (0% of herbicidal efficacy or phytotoxicity) | 4 (90%-100% of herbicidal efficacy or phytotoxicity) | 33 | 65 to 65.8 °C | – | – | – | – | – | – |
